Results reported in patent US20100056623A1, “FUMAGILLOL DERIVATIVES OR METHOD FOR PREPARATION OF FUMAGILLOL DERIVATIVES, AND PHARMACEUTICAL COMPOSITIONS COMPRISING THE SAME” (CHONG KUN DANG PHARMACEUTICAL CORP., priority 2005, published 2010).
Read-outs that look alike come from different tables or passages of the source.

Assays:
[1] = system: CPAE (calf pulmonary artery endothelial cell); assay: Inhibiting activity on cell proliferation, SRB analysis (CPAE); format: cell-based; conditions: for IC50: Bos taurus, Endothelial cell, 72 h, CPAE cells, 3 days with drug, SRB, read-out: IC50 (nM) CAPE; for Selectivity Index (L5178Y/CAPE): IC50 L5178Y / IC50 CPAE; for effect compared to CKD-731 against CPAE: relative to CKD-731; for effect compared to CKD-731 against SI: safety/selectivity index relative to CKD-731
Protocol: (§1) In order to compare the safety index (SI) of CPAE (calf pulmonary artery endothelial cell) with that of HUVEC (human umbilical vein endothelial cell), L5178Y lymphoma that was isolated from murine thymus was used. The safety index was defined as IC50 ratio of L5178Y against CPAE (IC50L5178Y/IC50CPAE). All cell lines, which had been kept in liquid nitrogen tank, were used after being thawed and subcultured 2˜3 times in T-flask. CPAE, HUVEC and L5178Y were cultured in MEM culture medium (20% FBS, 50˜100 μg/ml ECGS, 0.15% baking soda, 0.05 mg/ml gentamicin), M199 culture medium (20% FBS, 0.22% baking soda, 100 μg/ml heparin, 3 ng/ml bFGF, 0.05 mg/ml gentamicin) and RPMI 1640 culture medium (10% FBS, 0.2% baking soda, 0.05 mg/ml gentamicin), respectively, under the condition of 37° C. and 5% CO2.
(§2) The drug was prepared by being gradationally diluted to two or ten times by using PBS, 20 μl of the solution was added to each well of 96 well plate in triplicate. The cell, which is being incubated, was treated with trypsin to give cell suspension. The number of cell thereafter was counted. And 180 μl of the solution was inoculated to each well and cultured.
(§3) The cell was cultured with drugs for 3 days and then 50 μl of 50% TCA was added thereto (final concentration 10%). Subsequently the cell was fixed by being left alone at 4° C. for 1 hour. The well was washed 4 times by distilled water and then dried. After that 100 μl of SRB (Sulforhodamine B, Sigma Chemical Co.) solution (0.4% w/v in 1% acetic acid) was added thereto and then it was left alone at ordinary temperature for 30 minutes. Thereafter the well was washed 4 times by 1% acetic acid and dried. And then after adding 200 μl of 10 mM tris buffer, the absorbance at 570 nm was measured by automatic microplate reader (Model: Elx 808, Bio-Tek Instrument, INC). The viability was calculated from the ratio of the absorbance of the control to which drugs were not added and the well to which drugs were added.

[2] = system: L5178Y lymphoma; assay: Inhibiting activity on cell proliferation, MTT analysis (L5178Y); format: cell-based, murine; conditions: Mus musculus, 72 h, L5178Y lymphoma cells, 3 days with drug
Protocol: as §1, §2
The tumor cell was cultured with drugs for 3 days and then 50 μl of MTT (3-(4,5-dimethylthiazole-2-yl)-2,5-diphenyl tetrazolium bromide, Sigma Chemical Co.) solution (2.5 mg/ml in PBS) was added thereto. And it was further cultured for 4 hours at 37° C. Culture medium was removed carefully. And after dissolving formazan crystal by adding 150 μl of DMSO, the absorbance at 570 nm was determined.

[3] = system: SD rats; assay: Acute oral toxicity test on rats; format: in vivo; conditions: single oral dose 1 g/kg/15 ml in 0.5% methylcellulose
Protocol: The acute toxicity test was carried out using 6-weeks-old SD rats. Each Example of O-(4-(2-hydroxyethoxy)cinnamoyl)fumagillol (a compound of the Example 1), O-(3,5-dimethoxy-4-(2-hydroxyethoxy)cinnamoyl)fumagillol (a compound of the Example 2) and O-(4-(2-hydroxyethoxy)-3-methoxycinnamoyl)fumagillol (a compound of the Example 3) was suspended in 0.5% methylcellulose, and then orally administrated once to 5 of each male and each female rats per group by dosage of 1 g/kg/15 ml. After administrating the test substances, the death of the rats, clinic symptoms and the change of weight were observed. And also hematologic and blood biochemical tests were executed, the abnormality of abdominal and thoracic organs was observed by autopsy with the naked eye.

[4] = Solubility test; format: physicochemical; conditions: ordinary temperature
Protocol: To a constant amount (400 mg) of each compounds of present invention, a constant amount of demineralized water, methanol and ethanol were added separately, and the solution was stirred at ordinary temperature.

[5] = 1 month
Protocol: (§4) Each compound of the present invention was kept in an air-tight vessel for 1 month at 40±2° C. and 75±5% of relative humidity. Thereafter the HPLC purity test was executed.
(§5) 25 mL of the solution was precisely taken, and poured into 100 mL volumetric flask. Acetonitrile/20 mM ammonium acetate aqueous solution (50:50) was added thereto to be the total volume of 100 ml. The solution was filtrated, and the filtrate was used as a test liquid.
(§6) (2) Operational Condition of Instrument. • Column: Kromasil®C18 (UG 100 Å, 5 μm, 4.6 mm Φ×250 mm) • Column temperature: 30° C. • Mobil phase: 20 mM ammonium acetate (pH 4.2) buffer:acetonitrile (55:45) • Injection volume: 20 μL • Flow rate: 1.2 mL/min • Detector: UV light-absorption Spectrophotometer (detection wavelength: 306 nm)

[6] = Chemical stability test (HPLC purity); conditions: for change of purity (in words) / 1 month Other peaks (%) / 1 month Parent peak (%) / chemical stability compared to known compounds: 1 month at 40±2° C.; for change of purity (in words) / 1 month Other peaks (%) / 1 month Parent peak (%) / change of purity (%) / chemical stability compared to known compounds: 75±5% relative humidity; for 1 month Other peaks (%) / 1 month Parent peak (%) / Initial Other peaks (%) / Initial Parent peak (%): HPLC; for 1 month Other peaks (%) / 1 month Parent peak (%): air-tight vessel; for change of purity (%): initial vs 1 month at 40±2° C.
Protocol: as §4, §5, §6

[7] = system: HUVEC (human umbilical vein endothelial cell); assay: Inhibiting activity on cell proliferation, SRB analysis (HUVEC); format: cell-based; conditions: Homo sapiens, 72 h, HUVEC cells, 3 days with drug
Protocol: as §1, §2, §3

Compound | IC50 [1] | Selectivity Index (L5178Y/CAPE) [1] | effect compared to CKD-731 against CPAE [1] | effect compared to CKD-731 against SI [1] | IC50 [2] | clinic symptoms, death and change by toxicity (autopsy) [3] | The amount of solvent to dissolve 1 g of the compounds (ml), demineralized water [4] | The amount of solvent to dissolve 1 g of the compounds (ml), ethanol [4] | The amount of solvent to dissolve 1 g of the compounds (ml), methanol [4] | chemical stability compared to known compounds [5] | change of purity (in words) [6] | 1 month Other peaks (%) [6] | 1 month Parent peak (%) [6] | Initial Other peaks (%) [6] | Initial Parent peak (%) [6] | change of purity (%) [6] | IC50 [7] | chemical stability compared to known compounds [6]
COc1cc(/C=C/C(=O)O[C@@H]2CC[C@]3(CO3)[C@@H]([C@@]3(C)O[C@@H]3CC=C(C)C)[C@@H]2OC)cc(OC)c1OCCO [Example 2, O-(3,5-dimethoxy-4-(2-hydroxyethoxy)cinnamoyl)fumagillol] | 0.0025 nM | 1.00 × 10^7 | equivalent or not smaller than twice effect of CKD-731 | equivalent or more effect of CKD-731 | 25000 nM | no notable clinic symptoms, death and change by toxicity | 146 mL | 59 mL | 37 mL | more excellent chemical stability than TNP-470, CKD-732 and CKD-731 | hardly showed a change of purity | 0.9% | 99.1% | 0.9% | 99.1% | 0% |  | 
COc1cc(/C=C/C(=O)O[C@@H]2CC[C@]3(CO3)[C@@H]([C@@]3(C)O[C@@H]3CC=C(C)C)[C@@H]2OC)ccc1OCCO [Example 3, O-(4-(2-hydroxyethoxy)-3-methoxycinnamoyl)fumagillol] | 0.0045 nM |  | equivalent or not smaller than twice effect of CKD-731 | equivalent or more effect of CKD-731 | 56400 nM | no notable clinic symptoms, death and change by toxicity | 142 mL | 61 mL | 45 mL | more excellent chemical stability than TNP-470, CKD-732 and CKD-731 | hardly showed a change of purity | 1.6% | 98.4% | 1.5% | 98.5% | 0.1% |  | 
CO[C@@H]1[C@H](OC(=O)/C=C/c2ccc(NCCO)cc2)CC[C@]2(CO2)[C@H]1[C@@]1(C)O[C@@H]1CC=C(C)C [Example 5, O-(4-(2-hydroxyethylamino)cinnamoyl)fumagillol] | 0.0061 nM | 1.16 × 10^6 |  |  | 7110 nM |  | 132 mL | 60 mL | 39 mL |  |  | 1.5% | 98.5% | 0.8% | 99.2% | 0.7% | 0.00104 nM | more excellent chemical stability than TNP-470, CKD-732 and CKD-731
COc1ccc(/C=C/C(=O)O[C@@H]2CC[C@]3(CO3)[C@@H]([C@@]3(C)O[C@@H]3CC=C(C)C)[C@@H]2OC)cc1OCCO [Example 4, O-(3-(2-hydroxyethoxy)-4-methoxycinnamoyl)fumagillol] | 0.006 nM | 4.53 × 10^6 |  |  | 27300 nM |  | 145 mL | 65 mL | 49 mL |  | hardly showed a change of purity | 1.5% | 98.5% | 1.3% | 98.7% | 0.2% | 0.00376 nM | more excellent chemical stability than TNP-470, CKD-732 and CKD-731
CO[C@@H]1[C@H](OC(=O)/C=C/c2ccc(Cl)c(NCCO)c2)CC[C@]2(CO2)[C@H]1[C@@]1(C)O[C@@H]1CC=C(C)C [Example 7, O-(4-chloro-3-(2-hydroxyethylamino)cinnamoyl)fumagillol] | 0.0065 nM | 4.77 × 10^6 |  |  | 31000 nM |  | 137 mL | 67 mL | 42 mL |  |  | 1.1% | 98.9% | 0.6% | 99.4% | 0.5% | 0.0017 nM | more excellent chemical stability than TNP-470, CKD-732 and CKD-731
